Source: patent US20150005242A1, “AROMATIC-CATIONIC PEPTIDES AND USES OF SAME” (Institut de Recherches Cliniques de Montreal, priority 2010, published 2015)

Key:
[1] = test system: renal ischemia-reperfusion (IR) injury; test: restoration of mitochondrial respiration and ATP synthesis following renal ischemia-reperfusion (IR) injury; format: in vivo; conditions: rats, 2.0 mg/kg sc 30 min before ischemia and at reperfusion; for state 3 respiration (oxygen consumption) in isolated renal mitochondria: 45 min bilateral renal artery occlusion, 20 min reperfusion, p<0.01; for ATP content (ATP synthesis) in rat kidney: 45 min ischemia, 1 h after IR injury, P<0.05
Description: FIG. 2 is a chart showing treatment with D-Arg-Dmt-Lys-Phe-NH2 increased state 3 respiration in isolated renal mitochondria after 20 min IR injury (p<0.01).
FIG. 3 is a chart showing that treatment with D-Arg-Dmt-Lys-Phe-NH2 increased ATP content in rat kidney at 1 h after IR injury (P<0.05).
Preliminary studies further support our hypothesis that D-Arg-2′6′-Dmt-Lys-Phe-NH2 can facilitate ET and improve ATP synthesis in vivo. We have examined the effect of this peptide on restoration of mitochondrial respiration and ATP synthesis following ischemia-reperfusion (IR) injury in rats. Rats were subjected to bilateral occlusion of renal artery for 45 min followed by 20 min or 1 h reperfusion. Rats received saline or peptide (2.0 mg/kg sc) 30 min before ischemia and again at the time of reperfusion (n=4-5 in each group).

cytochrome c (cyt c) = cytochrome c (cyt c) (Homo sapiens, UniProt P99999); test: kinetics of cyt c reduction monitored by absorbance spectroscopy (A550); format: biochemical; conditions: for cyt c reduction by peptide alone: peptide alone at 100 μM, no reducing agent
Description: FIG. 1 is a chart showing that the peptide D-Arg-Dmt-Lys-Phe-NH2 increases the rate of cytochrome c (cyt c) reduction. Reduced cyt c was measured by absorbance at 550 nm. […] The peptide alone at 100 μM had no effect.
We hypothesize that the distribution of aromatic cationic peptides among the protein complexes in the IMM allows it to serve as additional relay stations to facilitate ET. In support of this hypothesis, we have used the kinetics of cyt c reduction (monitored by absorbance spectroscopy) as a simple model system to determine if the peptide D-Arg-2′6′-Dmt-Lys-Phe-NH2 can facilitate ET.

mitochondrial ROS = mitochondrial ROS and mitochondrial function in cellular and animal studies; format: cell-based
Source text: These examples identify “druggable” chemical compounds that can reduce mitochondrial oxidative stress and protect mitochondrial function. As mitochondria are the major source of intracellular reactive oxygen species (ROS), the antioxidant must be delivered to mitochondria in order limit oxidative damage to mitochondrial DNA, proteins of the electron transport chain (ETC), and the mitochondrial lipid membranes. We discovered a family of synthetic aromatic-cationic tetrapeptides that selectively target and concentrate in the inner mitochondrial membrane (IMM). Some of these peptides contain redox-active amino acids that can undergo one-electron oxidation and behave as mitochondria-targeted antioxidants. […] Although radical scavenging is the most commonly used approach to reduce oxidative stress, there are other potential mechanisms that can be used, including facilitation of electron transfer to reduce electron leak and improved mitochondrial reduction potential.

[2] = test system: animal models of ischemia-reperfusion injury, neurodegenerative diseases, and metabolic syndrome; test: animal models of ischemia-reperfusion injury, neurodegenerative diseases, and metabolic syndrome; format: in vivo
[3] = neutralization of reactive species and inhibition of lipid peroxidation; format: biochemical
[4] = listed as D-Arg-2′6′-Dmt-Lys-Phe-NH2, 2 mg/kg

Sequence of cytochrome c (cyt c) (P99999 whole entry, species assumed): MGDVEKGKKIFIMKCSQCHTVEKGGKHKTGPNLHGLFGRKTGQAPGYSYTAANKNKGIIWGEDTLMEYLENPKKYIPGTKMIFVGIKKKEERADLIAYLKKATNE

## D-Arg-2′6′-Dmt-Lys-Phe-NH2 [D-Arg-Dmt-Lys-Phe-NH2]
[1]; 2 mg/kg
  state 3 respiration (oxygen consumption) in isolated renal mitochondria: increased
  ATP content (ATP synthesis) in rat kidney: increased
[1]; [4]
  state 3 respiration (oxygen consumption) in isolated renal mitochondria: improved
  ATP content (ATP synthesis) in rat kidney: improved
Cytochrome c (cyt c); 40 μM NAC as reducing agent, absorbance at 550 nm
  rate of NAC-induced cyt c reduction: dose-dependently increased
Cytochrome c (cyt c)
  cyt c reduction by peptide alone: had no effect
Cytochrome c (cyt c); listed as D-Arg-2′6′-Dmt-Lys-Phe-NH2
  cyt c reduction by peptide alone: did not reduce cyt c

## D-Arg-2′6′-Dmt-Tyr-Lys-Phe-NH2
Mitochondrial ROS; cellular and animal studies
  mitochondrial ROS: reduces
  mitochondrial function: protect
Mitochondrial ROS; compared with mitochondrial catalase overexpression
  protection against mitochondrial oxidative stress: comparable to that observed with mitochondrial catalase overexpression
[2]
  efficacy in animal models: remarkable efficacy
other
  oral bioavailability: limited by degradation in intestinal fluids
[3]
  lipid peroxidation: inhibit
  neutralization of H2O2: can neutralize
  neutralization of hydroxyl radical: can neutralize
  neutralization of peroxynitrite: can neutralize
